Laboratory results from paper PMC5428058, “Local delivery of novel MRTF/SRF inhibitors prevents scar tissue formation in a preclinical model of fibrosis” (Scientific Reports, 2017).
pIC50: −log10 of the molar value.

Key:
[1] = system: human conjunctival fibroblasts; assay: fibroblast-populated collagen contraction assay (human); format: cell-based; conditions: for pIC50: human conjunctival fibroblasts in collagen type I matrix, 7 days
Method: We screened two candidate MRTF/SRF pathway inhibitors, CCG-222740 and CCG-203971, using detached three-dimensional fibroblast-populated collagen gels[56], [57]. Human or rabbit conjunctival fibroblasts were seeded in a collagen Type I matrix (First Link UK Ltd, Birmingham, UK) at a concentration of 0.7 × 10^4 cells/ml. The fibroblast-populated collagen gel mixture was cast into the wells of MatTek dishes (MatTek Corp, MI, USA). The gels were detached from the edges of the well and 2 ml of growth medium were added to each well with 5, 25, 50, 75, or 100 μM of CCG-222740 or CCG-203971 or 0.1% DMSO control. Digital photographs were obtained daily and lattice areas were measured using Image J software (http://rsb.info.nih.gov/ij/). The gel size at day 7 was assessed as a percentage of lattice area on day 0. Each experiment was performed as triplicate gels per condition and the experiment was repeated on three separate days.

[2] = system: rabbit conjunctival tissue; assay: histologic analysis of bleb tissue after glaucoma filtration surgery; format: in vivo; conditions: for expression of αSMA by cells in tissue sections / scar tissue formation (picrosirius red) compared to vehicle control: day 30; for newly laid extracellular matrix and collagen (Gomori's trichrome): day 30, vehicle versus treated
Method: We further evaluated the histologic differences after local delivery of CCG-222740 and CCG-203971. The white filtration tube was used as landmark and the plane of sectioning of the bleb area was performed 2 mm from the tube (black line in Fig. 5). Grading was performed using a modified system originally described by Shah et al.[34]. The left operated eyes were compared to the right non-operated eyes that were used as controls for the appearance of normal conjunctival tissue. The sections were graded using a scale of −4 to +4 (0 = same as control eye; 1 = 1–25% difference from control eye; 2 = 26–50% difference from control eye; 3 = 51–75% difference from control eye; 4 = >75% difference from control eye; prefix+, more than; prefix−, less than). Analysis was performed using the mean results in each treatment group.
The animals were sacrificed on day 30 and both eyes were enucleated. The eyes were fixed in formalin, embedded in paraffin, and sequential 4 μm tissue sections were cut.
The sections were stained with hematoxylin and eosin (for cellularity and inflammatory cells), Gomori’s trichrome (for collagen), picrosirius red (for degree of fibrosis and collagen deposition), and alpha-smooth muscle actin (αSMA) using a primary monoclonal mouse anti-human αSMA antibody (Clone 1A4; Dako, High Wycombe, UK) and a biotinylated secondary antibody (rabbit anti-mouse; Dako). All the left operated eyes were compared to the right non-operated eyes that were used as controls for the appearance of normal conjunctival tissue. The sections were graded using a modified grading system originally described by Shah et al.[34], with a scale of −4 to +4 according to the staining intensity. Grades were defined as 0 = same as control eye; 1 = 1–25% difference from control eye; 2 = 26–50% difference from control eye; 3 = 51–75% difference from control eye; 4 = >75% difference from control eye (prefix+, more than; prefix −, less than).

[3] = system: New Zealand white rabbits; assay: local and systemic toxicity after glaucoma filtration surgery; format: in vivo; conditions: rabbit; for Ki67 positive cells in the conjunctival epithelium: day 30; for corneal or conjunctival toxicities, anterior chamber inflammation / local toxicity, conjunctival epithelium: local delivery; for systemic toxicity: local delivery to the conjunctiva
Method: The animals were evaluated twice weekly by a single-masked researcher. Bleb width and length were measured using calipers and intraocular pressures (IOP) were measured using a tonovet (Icare). The primary efficacy end-point was bleb survival as this is indicative of the long-term opening of the filtration pathway created during surgery. Bleb failure was defined as the appearance of a flat, scarred, and vascularised bleb associated with a deep anterior chamber. IOP survival, defined as when the intraocular pressure remains below the baseline IOP measurement, and bleb area were used as secondary end-points. Conjunctival vascularity was graded on a scale of 0 to 3 (0: avascular, 1: normal, 2: hyperaemic, 3: very hyperaemic).
For the Ki67 staining, the sections were dewaxed, rehydrated, and microwaved for 15 minutes in sodium citrate buffer (pH 6) for antigen retrieval. After incubating in 1.6% hydrogen peroxide followed by 10% normal horse serum, the sections were incubated in mouse anti-Ki67 (M7248, Dako) diluted 1 in 25 in 1% BSA/PBS for 1 hour at room temperature. The sections were then incubated in biotinylated horse anti-mouse IgG (Vector) and Avidin-Biotin complex (Vector), developed in DAB (Vector), and counterstained in haematoxylin.
All animals were carefully evaluated for any signs of ocular or systemic toxicity during the study. At day 30, 100 µl of aqueous, 1 ml of vitreous, and 1 ml of venous blood were sampled on the rabbit eyes receiving CCG-222740 or CCG-203971 or vehicle control. The venous blood samples were left to clot for 30 minutes at room temperature, spun at 4000 rpm for 15 minutes at 4 °C, and the serum was collected as the supernatant. Samples were extracted in acetonitrile and the levels of CCG-222740 and CCG-203971 were measured in the aqueous, vitreous, and serum using liquid chromatography/mass spectrometry (LC/MS) in the Metabolomics Core at Michigan State University (East Lansing, MI).

[4] = system: ACTA2 and CTGF in human conjunctival fibroblasts; assay: MRTF/SRF target gene expression by qRT-PCR (human); format: cell-based; conditions: 24 hours, 10% FCS
Method: (§1) Human or rabbit conjunctival fibroblasts were plated at 1 × 10^5 cells/well in 6-well plates (Falcon, Fisher Scientific). The next day, the fibroblasts were treated with 5, 10, 25, or 50 μM of CCG-222740 or CCG-203971 or 0.1% DMSO control in DMEM +10% FCS for 24 hours. The fibroblasts were then lysed for RNA extraction using the Sigma RNA isolation kit (Sigma-Aldrich), according to the manufacturer’s instructions. Reverse transcription was carried out using the Transcriptor First Strand cDNA Synthesis Kit (Roche), according to the manufacturer’s instructions. qRT-PCR reactions were performed using SYBR green reagents (Life Technologies) on an HT7900 Fast Real-Time PCR system (Applied Biosystems). The human exonic primer sequences were: ACTA2, 5′-[…]-3′, 3′-[…]-5′; CTGF, 5′-CAGAGTGGAGCGCCTGTT-3′, 3′-CTGCAGGAGGCGTTGTCA-5′; GAPDH, 5′-[…]-3′, 3′-[…]-5′. The rabbit exonic primer sequences were ACTA2, 5′- […]-3′, 3′- […]-5′; GAPDH, 5′-CGAGACACGATGGTGAAGG-3′, 3′-[…]-5′. All mRNA values were normalised relative to that of GAPDH. Each experiment was carried out in triplicates for each treatment group and the experiment was repeated three times.

[5] = system: ACTA2 in rabbit conjunctival fibroblasts; assay: ACTA2 gene expression by qRT-PCR (rabbit); format: cell-based; conditions: 24 hours
Method: as §1

SMILES	pIC50 [1]	expression of αSMA by cells in tissue sections [2]	scar tissue formation (picrosirius red) compared to vehicle control [2]	newly laid extracellular matrix and collagen (Gomori's trichrome) [2]	conjunctival vascularity [3]	Ki67 positive cells in the conjunctival epithelium [3]	corneal or conjunctival toxicities, anterior chamber inflammation [3]	local toxicity, conjunctival epithelium [3]	systemic toxicity [3]	potency in collagen contraction relative to CCG-203971 ([1]; human conjunctival fibroblasts)	expression of MRTF/SRF target genes ACTA2 and CTGF, comparison [4]	ACTA2 gene expression, comparison [5]
O=C(Nc1ccc(Cl)cc1)C1CCCN(C(=O)c2cccc(-c3ccco3)c2)C1 (stereo not drawn) [CCG-203971]	4.60	significantly decreased the expression of αSMA	significant decrease in scar tissue formation	present to a greater degree in the vehicle-treated group compared to	no abnormalities in conjunctival vascularity	normal Ki67 positive cells	no signs of corneal or conjunctival toxicities or anterior chamber inflammation	did not cause any detectable local toxicity	none of them showed any signs of systemic toxicity	–	–	–
O=C(Nc1ccc(Cl)cc1)C1CN(C(=O)c2cccc(-c3ccco3)c2)CC(F)(F)C1 (stereo not drawn) [CCG-222740]	5.30	significantly decreased the expression of αSMA	significant decrease in scar tissue formation	present to a greater degree in the vehicle-treated group compared to	no abnormalities in conjunctival vascularity	normal Ki67 positive cells	no signs of corneal or conjunctival toxicities or anterior chamber inflammation	did not cause any detectable local toxicity	none of them showed any signs of systemic toxicity	five times more potent than CCG-203971	more potent inhibitor of expression	decreased ACTA2 gene expression to a greater extent than CCG-203971
